For series [1], the system named is M21 human melanoma cells (αvβ3+). The series can be described thus: MTT in vitro cytotoxicity assay, M21. In kind it is cell-based. Particulars: for IC50: Homo sapiens, MTT, 2 h treatment and additional 70 h incubation. Here is the method:
(§1) The human melanoma M21 and M21-L cells were kindly provided by Dr. David Cheresh and The Scripps Research Institute (La Jolla, CA, USA). Cells were cultured in RPMI 1640 supplemented with 10% fetal bovine serum (FBS), 1% L-glutamine and 1% Penicillin/Streptomycin in a humidified incubator at 37 °C and 5% CO2.
(§2) Cell viability was quantified by 3-(4,5-dimethylthiazol-2-yl)-2,5-diphenyltetrazolium bromide (MTT) assay. Cells were plated at a density of 3000 cells/well (Nunc® MicroWell® flat-bottom 96-well plate, Thermo Fisher Scientific) and incubated overnight to allow adherence. The following day, cells were treated with serial dilutions of each compound or 0.1% DMSO as control. After 2 h of incubation, cells were centrifuged at 1200 rpm for 5 min; supernatant containing the compounds was removed and replaced with fresh medium. Cells were further incubated for 70 h as described above, and at the end of treatment, 5 µL of MTT (5 mg/mL in deionized H2O, #M5655, Sigma Aldrich) were added to each well and the cells incubated for another 2 h. Finally, 100 µL of lysis buffer (10% SDS, 10 mM HCl) were added, and cells were placed in the incubator overnight for the formazan crystal solubilization. Absorbance at 540 nm was measured using FLUOstar Omega (BMG Labtech, Ortenberg, Germany) instrument and the growth inhibition ratio was calculated. Blank controls detecting cell-free media absorbance were performed in parallel. Three experimental replicates were used. The half-maximal inhibitory concentration values (IC50) were obtained from viability curves by fitting data to the four-parameter logistic equation using GraphPad Prism 6 (GraphPad Software, San Diego, CA, USA). The cell viability was expressed as percentage relative to the respective control conditions.

A short description of series [2]: plasma metabolic stability assay, mouse plasma. The class given is in vitro ADME. The conditions noted are these: 24 h. Here is the method:
(§3) The sample preparation and the metabolic analysis of the conjugates was carried out similarly to a previously described method. In a 96-well plate, the stock solutions (3 mM in dimethyl sulfoxide (DMSO)) of the conjugates and the control compound were diluted with 250 μL of plasma (pooled heparinized mouse ICR/CD1 M plasma #08 or human plasma #MPLLIHP-M, #BHR1003077, BioreclamationIVT, Westbury, NY, USA) to give a 3-µM concentration and incubated at 37 °C. At each sampling time an aliquot of 30 µL was transferred into a 96-deep-well plate and the reaction was stopped with 120 µL of acetonitrile (ACN) containing 0.1% HCOOH and 400 ng/mL of warfarin as internal standard (IS). This mixture was centrifuged at 1100× g for 30 min at 4 °C and 50 µL of supernatants were transferred into a clean 96-deep-well plate and diluted with 50 µL of 0.1% HCOOH in water. Samples were stored at −80 °C prior to UPLC-HRMS analysis (see Supplementary Materials). The stability was determined based on the disappearance of the test compound as a function of incubation time, using area ratios (analyte peak area vs internal standard peak area). The elimination constant k was calculated by plotting mean disappearance values on a semi-logarithmic scale and fitting with a best fit linear regression using Microsoft Excel. The half-life (t1/2) expressed in hours was determined using equation: t1/2 = ln2/(−k). […]

The subject of series [3] is M21-L human melanoma cells (αv-, αvβ3-). Kind of series: MTT in vitro cytotoxicity assay, M21-L. The class given is cell-based. The conditions noted are these: 2 h treatment and additional 70 h incubation. Here is the method:
as §1, §2

Series [4] concerns the target T1, bovine spleen cathepsin B (Bos taurus, UniProt P07688).
T1 construct: cathepsin B (bovine spleen cathepsin B, #C6286, Sigma Aldrich); purchased Sigma Aldrich C6286; host or cells: bovine spleen
Kind of series: cathepsin B cleavage assay. The class given is in vitro ADME. The conditions noted are these: cathepsin B 1 U/mL, 37 °C, pH 5.5, 5 µM substrate. Here is the method: L-cysteine (#C8152, Sigma Aldrich) was dissolved in acetate buffer/ethylenediaminetetraacetic acid (EDTA) 1 mM pH 5.5 to get a solution with a final concentration of L-cysteine of 28 mM. This solution was used to dilute an aliquot of cathepsin B (bovine spleen cathepsin B, #C6286, Sigma Aldrich) to 1.11 U/mL. Sample containing cathepsin B was pre-incubated at 37 °C for 15 min and then split into 45-µL aliquots in Eppendorf tubes, two replicates for each incubation time. Aliquots of 5 µL of 50 µM solutions of the substrates prepared in MeOH/H2O (50/50) were added to each tube, to get a final concentration of 5 µM. Tubes corresponding to t = 0 min contained 100 µL of 1% HCOOH in MeOH and were put in an ice bath to stop the reaction. All the other tubes were incubated at 37 °C in an oscillating thermostatic bath and reaction was stopped at the following incubation times: 0.25, 0.5, 1, 2, 4, and 6 h, as described for t = 0 min samples. Samples were centrifuged for 10 min at 14,000 rpm at 4 °C and filtered with regenerated cellulose syringe filters prior to injection in the HPLC-MS system (see Supplementary Materials). […] Substrates and possible metabolites were quantified based on calibration curves prepared in acetate buffer/EDTA/L-cysteine.

Series [5] is described as follows: plasma metabolic stability assay, human plasma. Particulars: 24 h. In kind it is in vitro ADME. The procedure: as §3
The target of another series is T2, human αvβ3 integrin (Homo sapiens, UniProt P05106+P06756, DEL719-788).
T2 construct: purchased R&D Systems 3050-AV-050
Kind of series: competitive ELISA-like integrin binding assay (immobilized vitronectin, soluble integrin). The conditions noted are these: competition with immobilized vitronectin.

As for `COc1ccc(C[C@H]2NC(=O)/C=C/C[C@@H]([C@H](C)[C@H]3O[C@@H]3c3ccccc3)OC(=O)[C@H](CC(C)C)OC(=O)C(C)(C)CNC2=O)cc1Cl` [compound 2, cryptophycin-52, reference compound], the IC50 in series [1] was 0.07 nM; in series [3], 0.02 nM. Moreover, in series [1] (M21 and M21-L cells, same test conditions), the “fold higher biological activity than cryptophycin-55 glycinate” value is recorded as 10-20 fold. For the same molecule, the “stability in mouse plasma” value in series [2] is given as “significant metabolism”.

Take `COc1ccc(C[C@H]2NC(=O)/C=C/C[C@@H]([C@H](C)[C@@H](OC(=O)CNC(=O)[C@@H]3CCCN3C(=O)CN)[C@@H](Cl)c3ccccc3)OC(=O)[C@H](CC(C)C)OC(=O)C(C)(C)CNC2=O)cc1Cl` [compound 12, Gly-Pro-Cry-55gly]: the IC50 in series [1] was 0.15 ± 0.03 nM; in series [3] it was 0.039 ± 0.01 nM. The “cleavage and metabolism upon incubation with cathepsin B” value in series [4] is recorded as “not further metabolized to cryptophycin-55 glycinate”.

Consider `COc1ccc(C[C@H]2NC(=O)/C=C/C[C@@H]([C@H](C)[C@@H](OC(=O)CN)[C@@H](Cl)c3ccccc3)OC(=O)[C@H](CC(C)C)OC(=O)C(C)(C)CNC2=O)cc1Cl` [compound 4, Cryptophycin-55 glycinate], for which the results for the IC50 in series [1] and in series [3] were 0.75 ± 0.11 nM and 0.14 ± 0.08 nM, respectively. In addition, in series [2], the “stability in mouse plasma” value is “markedly improved stability compared to the parent compound”. The “stability in human plasma” value in series [5] is listed as “good stability”.

Regarding `[N-]=[N+]=NCCC(=O)NCCCC[C@@H]1NC(=O)[C@@H](Cc2ccccc2)NC(=O)[C@H](CC(=O)O)NC(=O)CNC(=O)[C@H](CCCNC(=N)N)NC1=O` [compound 9], the IC50 at human αvβ3 integrin worked out at 0.71 nM.

As usually defined, the IC50 is the point on the concentration scale where inhibition reaches its midpoint. Higher therefore signals lower potency.

The values are drawn from PMC6523311, “Synthesis and Biological Evaluation of RGD–Cryptophycin Conjugates for Targeted Drug Delivery” (Pharmaceutics, 2019).
